The source of these data is ChEMBL document CHEMBL1201862, “PubChem BioAssay data set” (2004).

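Five compound concentrations were applied to cells in 96-well plates for 48 hours; endpoints were derived by simple linear interpolation of the resulting dose-response curve. Here, GI50 denotes the concentration required for 50% inhibition of growth.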 The source made the active and inactive calls. No stated cut-off is given here; in the data, active = GI50 up to about 1.1 µM and inactive = higher.

Holding throughout (assay): growth of human tumour cells (NCI), 48 h
The test system of assay [1] is K562.
In assay [2] the test system is UACC-62.
Assay [3] concerns OVCAR-8.
In assay [4] the test system is MOLT-4.
Assay [5] deals with SF-268.
Assay [6] has as its system BT-549.
For assay [7], the system named is OVCAR-5.
The subject of assay [8] is UO-31.
Assay [9] has as its system HCC 2998.
Assay [10] deals with EKVX.
Assay [11] deals with MDA-MB-435.
In assay [12] the test system is NCI-H23.
For assay [13], the system named is HCT-116.
The subject of assay [14] is TK-10.
Assay [15] deals with OVCAR-3.
Assay [16] relates to SF-539.
Assay [17] relates to SN12C.
The test system of assay [18] is SNB-19.
The test system of assay [19] is SK-MEL-5.
Assay [20] has as its system HCT-15.

Turning to `Cc1cc(N(CCC#N)CCC#N)ccc1C(=N/NC(=O)c1cc(Cl)ccc1O)/N=N/c1cccc(Cl)c1`, the GI50 in assay [1] is 15.7 µM (inactive); in assay [2] it was 10.6 µM (inactive); in assay [3], 12.1 µM (inactive); in assay [4], 4.81 µM (inactive); in assay [5], 11.8 µM (inactive); in assay [6], 14.8 µM (inactive). Also, the GI50 was 41.6 µM (inactive) in assay [7]; 18.9 µM (inactive) in assay [8]; 12 µM (inactive) in assay [9]; 14.4 µM (inactive) in [10]; 27.3 µM (inactive) in assay [11]; 13.7 µM (inactive) in assay [12]. The GI50 in assay [13] is 12.2 µM (inactive); in assay [14], 16.5 µM (inactive); in [15], 3.56 µM (inactive); in assay [16], 30.1 µM (inactive); in [17], 19.1 µM (inactive); in assay [18] it was 22.9 µM (inactive). The GI50 was 13.7 µM (inactive) in assay [19] and 6.62 µM in assay [20].
Regarding `Cc1cc(O)c(C(C)C)cc1CN1CCCCC1`, the GI50 in assay [1], in assay [2], in assay [3], in assay [4], in [5] and in assay [6] was > 100 µM (inactive) in each case. Moreover, the GI50 in assay [7], in [8], in assay [9], in assay [10], in assay [11] and in assay [12] was > 100 µM (inactive) throughout. Besides, the GI50 in [13], in assay [14], in [15], in [16], in assay [17] and in assay [18] was > 100 µM (inactive) throughout. Further, the GI50 was > 100 µM (inactive) in assay [19] and > 100 µM in assay [20].
Take `CC(=O)Oc1ccc(C2SCc3nc4ccccc4n32)cc1` (stereo not given): the GI50 in assay [1] is 7.23 µM (inactive); in assay [2], 29.7 µM (inactive); in assay [3], 18.7 µM (inactive); in [4], 16.1 µM (inactive); in assay [5], 21 µM (inactive); in assay [6] it was 6.4 µM (inactive). The GI50 in [7] is 69.5 µM (inactive); in assay [8], 8.57 µM (inactive); in assay [9], 33 µM (inactive); in [10], 26.9 µM (inactive); in [11] it was 5.48 µM (inactive); in assay [12] it was 16.3 µM (inactive). Also, the GI50 is 23.3 µM (inactive) in assay [13]; 35.2 µM (inactive) in assay [14]; 24.4 µM (inactive) in assay [15]; 41 µM (inactive) in [16]; 49.8 µM (inactive) in assay [17]; 50.6 µM (inactive) in assay [18]. For the same compound, the GI50 is 24.7 µM (inactive) in assay [19] and 25.8 µM in assay [20].
For `CCOC(=O)CCC(NC(=O)c1ccc(Nc2nc3ccc(C(F)(F)F)cc3nc2-c2ccccc2)cc1)C(=O)OCC` (stereo not given), the GI50 in assay [1] was 44.2 µM (inactive); in assay [2] it was 17.3 µM (inactive); in assay [3], > 100 µM (inactive); in [4], 22.1 µM (inactive); in [5], 55.6 µM (inactive); in assay [6], > 100 µM (inactive). Moreover, the GI50 was > 92.9 µM (inactive) in assay [7]; 31.5 µM (inactive) in [8]; 28 µM (inactive) in assay [9]; > 100 µM (inactive) in [10]; 83 µM (inactive) in [11]; 97.1 µM (inactive) in [12]. For the same compound, the GI50 in assay [13] was > 100 µM (inactive); in assay [14], > 100 µM (inactive); in assay [15], 26.6 µM (inactive); in [16] it was 45.5 µM (inactive); in assay [17] it was > 100 µM (inactive); in assay [18], > 100 µM (inactive). For the same compound, the GI50 is 30.4 µM (inactive) in assay [19] and > 100 µM in assay [20].
Turning to `O=C(NCCSSCCNC(=O)/C(Cc1ccc(O)c(Br)c1)=N/O)/C(Cc1ccc(O)c(Br)c1)=N/O` [PSAMMAPLIN A], the GI50 was 1.81 µM (inactive) in [1]; 1.72 µM (inactive) in assay [2]; 1.52 µM (inactive) in [3]; 0.402 µM (active) in assay [4]; 1.62 µM (inactive) in [5]; 6.21 µM (inactive) in assay [6]. Moreover, the GI50 is 2.21 µM (inactive) in assay [7]; 1.74 µM (inactive) in assay [8]; 2.17 µM (inactive) in assay [9]; 4.49 µM (inactive) in [10]; 1.51 µM (inactive) in [11]; 3.2 µM (inactive) in assay [12]. In addition, the GI50 is 1.39 µM (inactive) in assay [13]; 2.92 µM (inactive) in assay [14]; 1.87 µM (inactive) in [15]; 1.72 µM (inactive) in assay [16]; 1.43 µM (inactive) in assay [17]; 2.08 µM (inactive) in assay [18]. Besides, the GI50 in assay [19] was 0.927 µM (active); in assay [20], 4.89 µM.
Turning to `O=NN(CCCl)C(=O)NC1CCC(=O)NC1=O` (stereo not given), the GI50 in assay [1] is 153 µM (inactive); in assay [2] it was 25.5 µM (inactive); in [3], 50 µM (inactive); in assay [4], 49.2 µM (inactive); in assay [5], 38.7 µM (inactive); in assay [6], 251 µM (inactive). For the same compound, the GI50 in assay [7] was 804 µM (inactive); in assay [8], 676 µM (inactive); in assay [9], 713 µM (inactive); in assay [10], 415 µM (inactive); in assay [11], 191 µM (inactive); in [12], 277 µM (inactive). The GI50 in [13] was 215 µM (inactive); in [14], 379 µM (inactive); in [15], 818 µM (inactive); in assay [16] it was 50.8 µM (inactive); in assay [17] it was 243 µM (inactive); in [18], 112 µM (inactive). Also, the results for the GI50 in assay [19] and in [20] were 121 µM (inactive) and 300 µM, respectively.
As for `O=C(NCCN1CCOCC1)c1ccc2cc(C(=O)N3CC(CCl)c4ccc([N+](=O)[O-])cc43)[nH]c2c1` (stereo not given), the GI50 in assay [1] is 19.4 µM (inactive); in assay [2] it was 11.9 µM (inactive); in [3] it was 12.1 µM (inactive); in assay [4] it was 6.52 µM (inactive); in assay [5], 9.84 µM (inactive); in assay [6] it was 16.9 µM (inactive). Besides, the GI50 in [7] is > 100 µM (inactive); in assay [8], 43.4 µM (inactive); in [9] it was 15 µM (inactive); in assay [10], 16.6 µM (inactive); in assay [11] it was 15.5 µM (inactive); in assay [12], 43.6 µM (inactive). The GI50 in assay [13] was 13.5 µM (inactive); in assay [14], 16.9 µM (inactive); in [15], 16.9 µM (inactive); in assay [16], 60.4 µM (inactive); in assay [17], 19.2 µM (inactive); in assay [18], 12 µM (inactive). Besides, the figures for the GI50 in [19] and in [20] were 2.54 µM (inactive) and 19.1 µM, respectively.
Turning to `COC1C(C)OC(OC2CC(C)(O)Cc3cc4c(c(O)c32)C(=O)c2c(O)cc3c(c2C4=O)OC2OC3(C)C(O)C(N(C)C)C2O)C(OC)C1(C)OC` (stereo not given), the GI50 in assay [1] was 0.00438 µM (active); in assay [2], 0.016 µM (active); in [3], 0.00496 µM (active); in assay [4], 0.00469 µM (active); in assay [5] it was 0.00484 µM (active); in [6], 0.000257 µM (active). Also, the GI50 is 0.0628 µM (active) in [7]; 0.411 µM (active) in assay [8]; 0.0342 µM (active) in assay [9]; 0.0409 µM (active) in assay [10]; 0.00102 µM (active) in assay [11]; 0.00496 µM (active) in [12]. Besides, the GI50 was 0.015 µM (active) in assay [13]; 0.00527 µM (active) in assay [14]; 0.00516 µM (active) in [15]; 0.00348 µM (active) in assay [16]; 0.0378 µM (active) in assay [17]; 0.00378 µM (active) in assay [18]. Also, the GI50 in [19] is 0.0237 µM (active); in assay [20], 0.00849 µM.
As to `COC(=O)C1SC(SC)=NC12c1ccccc1Nc1ccccc12` (stereo not given), the GI50 in [1] was 23.9 µM (inactive); in assay [2], 16.6 µM (inactive); in [3], 33.3 µM (inactive); in assay [4] it was 22.1 µM (inactive); in [5], 37.4 µM (inactive); in assay [6], 24.7 µM (inactive). Besides, the GI50 in assay [7] is 54.8 µM (inactive); in [8], 69.2 µM (inactive); in assay [9], 24.5 µM (inactive); in assay [10], 30.1 µM (inactive); in assay [11], 27 µM (inactive); in assay [12] it was 19.8 µM (inactive). Moreover, the GI50 in assay [13] is 31.7 µM (inactive); in assay [14] it was 50 µM (inactive); in assay [15] it was 18.2 µM (inactive); in assay [16], 17.5 µM (inactive); in [17], 30.7 µM (inactive); in [18] it was 40.5 µM (inactive). Also, the GI50 in [19] was 17.2 µM (inactive); in assay [20], 29.4 µM.
As for `Nc1ncn(C2OC(COP(=O)(O)O)C(O)C2O)c(=O)n1` (stereo not given), the GI50 was > 90.8 µM (inactive) in [1]; > 100 µM (inactive) in assay [2]; 40.7 µM (inactive) in assay [3]; 2.39 µM (inactive) in assay [4]; > 92 µM (inactive) in assay [5]; > 100 µM (inactive) in assay [6]. Also, the GI50 is > 100 µM (inactive) in assay [7]; > 91.2 µM (inactive) in assay [8]; > 100 µM (inactive) in assay [9]; > 58.2 µM (inactive) in [10]; > 53.2 µM (inactive) in assay [11]; > 81.8 µM (inactive) in [12]. For the same compound, the GI50 is 75.9 µM (inactive) in assay [13]; > 100 µM (inactive) in assay [14]; > 100 µM (inactive) in [15]; > 100 µM (inactive) in assay [16]; 63.5 µM (inactive) in assay [17]; > 100 µM (inactive) in assay [18]. The GI50 in [19] is > 100 µM (inactive); in assay [20], > 100 µM.
